Test results from US7629126B2, “PIM-3 kinase as a target for type 2 diabetes mellitus” (Sanofi-Aventis Deutschland GmbH, priority 2002, dated 2009).
Values joined by “and” are separate entries in the source; they are usually repeats but may differ in a detail not shown here. Identical values can stand only once.

Legend:
Pim-3 [1] = assay: Gene expression of Pim-3 in epididymal adipose tissue of ZDF rats treated with anti-diabetic drugs (PPARγ agonists); format: in vivo, rat; conditions: ZDF rats 20 weeks old, 3 mg/kg/day for 14 weeks, single animals Rosi 1-5 vs ZDF 1-5
Experimental: (§1) Zucker Diabetic Fatty (ZDF/Gmi.TM.−fa/fa) male rats as well as their lean fa+/fa− counterparts, aged 5 weeks (control 1-5, ZDF 1-10)were obtained from Genetic Models Inc. (Indianapolis, Ind.). The rats were given free access to food and water. The ZDF animals were split into 2 groups: group 1(animals ZDF 1-5) was not treated with any agent, whereas the second group was treated for 14 weeks with the antidiabetic drug Rosiglitazone (3 mg/kg/day, animals 6-10, Rosi 1-5,). For the collection of epididymal fat pads and also blood samples, in each case 5 animals were sacrificed by cervical dislocation. To monitor the success of the antidiabetic treatment, HbA1c as marker of long-term blood glucose levels were measured by standard methods after finishing of the experiment.
Collection of epididymal adipose tissue, RNA isolation and Affymetrix experiments were performed as described in experiment 1. Data analysis included the comparison of expression data of samples derived from the lean control animals versus the untreated ZDF rats as well as the comparison of the expression data derived from Rosiglitazone treated ZDF animals versus non-treated ZDF animals. […] Fold changes of gene expression for Pim-3 were analyzed using the Affymetlrix qualifier AF086624_S_AT.

PIM-3 [2] = assay: Gene expression of PIM-3 in 3T3-L1 adipocytes treated with antidiabetic drugs (PPARγ agonists), Affymetrix array; format: cell-based, murine
Experimental: 3T3-L1 preadipocytes were grown at 37° C. in 10% CO2 in Dulbecco's modified Eagle's medium (DMEM) containing 1 g/l glucose and 10% fetal calf serum (FCS). For differentiation into mature adipocytes, confluent preadipocytes were cultured for four days in DMEM supplemented with 4.5 g/l glucose, 10% FCS, 50 μg/ml ascorbic acid, 1 μM biotin, 17 μM pantothenic acid (=basal medium), 500 μM 3-isobutylmethylxanthine, 0.25 μM dexamethasone and 1 μg/ml human recombinant insulin. During the four day treatment the medium was changed once.
Differentiated 3T3-L1 cells were maintained in basal medium for one additional day and subsequently kept in serum-free basal medium for four hours. Then, PPARγ agonists diluted in basal medium were added to the adipocytes as described below centrations and conditions see table 5):
RNA was isolated using the TRIzol reagent (Life Technologies, Karlsruhe, Germany) and treated with DNase I by applying the DNA-free kit (Ambion, Austin, Tex., US).
Further purification of the RNA was achieved using the RNeasy mini kit (Qiagen, Hilden, Germany) and quality/quantity control was done with the 2100Bioanalyzer (Agilent, Böblingen, Germany). 10 μg of total RNA was converted into biotinylated cRNA according to the GeneChip expression analysis technical manual (Affymetrix, Santa Clara, Calif., US). Briefly, first and second strand synthesis was performed by applying the SuperScript double stranded cDNA synthesis kit (Life Technologies, Kardsruhe, Germany) and biotin labeled cRNA was produced with the BioArray RNA transcript labeling kit (Enzo Diagnostics, Framingdale, N.Y., US). 10 μg of cRNA was fragmented by heat, added to the GeneChip eukaryotic hybridization control solution (Affymetrix) and hybridized to a GeneChip MG-U74Av2 array (Affymetrix) by rotating for 16 hours at 45° C. Washing, staining and scanning of the array was carried outwith standard procedures using the hardware provided by Affymetrix. Raw data was analyzed by applying the microarray suite version 4.0.1 software (Affymetrix, see above).
The entire experiment was repeated twice to provide three biological replicates.
Data analysis including the estimation of fold changes was performed as described above. Fold change values for PIM-3 were obtained by comparing the compound treated samples against the untreated controls for each time point.

ZDF rats = assay: HbA1c as marker of long-term blood glucose in ZDF rats treated with Rosiglitazone; format: in vivo, rat; conditions: ZDF rats treated 14 weeks, 3 mg/kg/day, single animals R1-R5
Experimental: as §1

[3] = 1 μM, 6 hours, Table 6a (replicate 1)
[4] = 1 μM, 6 hours, Table b (replicate 2)
[5] = 1 μM, 6 hours, Table c (replicate 3)
[6] = 1 μM, 24 hours, Table 6a (replicate 1)
[7] = 1 μM, 24 hours, Table b (replicate 2)
[8] = 1 μM, 24 hours, Table c (replicate 3)
[9] = 1 μM, 48 hours, Table 6a (replicate 1)
[10] = 1 μM, 48 hours, Table b (replicate 2)
[11] = 1 μM, 48 hours, Table c (replicate 3)
[12] = 5 μM, 6 hours, Table 6a (replicate 1)
[13] = 5 μM, 6 hours, Table b (replicate 2)
[14] = 5 μM, 6 hours, Table c (replicate 3)
[15] = 5 μM, 24 hours, Table 6a (replicate 1)
[16] = 5 μM, 24 hours, Table b (replicate 2)
[17] = 5 μM, 24 hours, Table c (replicate 3)
[18] = 5 μM, 48 hours, Table 6a (replicate 1)
[19] = 5 μM, 48 hours, Table b (replicate 2)
[20] = 5 μM, 48 hours, Table c (replicate 3)

Structure (SMILES)	Fold change (Pim-3 gene expression, treated ZDF rats vs untreated ZDF rats) (Pim-3 [1])	Fold change (PIM-3 gene expression vs DMSO control) (PIM-3 [2]; [3])	Fold change (PIM-3 gene expression vs DMSO control) (PIM-3 [2]; [4])	Fold change (PIM-3 gene expression vs DMSO control) (PIM-3 [2]; [5])	Fold change (PIM-3 gene expression vs DMSO control) (PIM-3 [2]; [6])	Fold change (PIM-3 gene expression vs DMSO control) (PIM-3 [2]; [7])	Fold change (PIM-3 gene expression vs DMSO control) (PIM-3 [2]; [8])	Fold change (PIM-3 gene expression vs DMSO control) (PIM-3 [2]; [9])	Fold change (PIM-3 gene expression vs DMSO control) (PIM-3 [2]; [10])	Fold change (PIM-3 gene expression vs DMSO control) (PIM-3 [2]; [11])	Fold change (PIM-3 gene expression vs DMSO control) (PIM-3 [2]; [12])	Fold change (PIM-3 gene expression vs DMSO control) (PIM-3 [2]; [13])	Fold change (PIM-3 gene expression vs DMSO control) (PIM-3 [2]; [14])	Fold change (PIM-3 gene expression vs DMSO control) (PIM-3 [2]; [15])	Fold change (PIM-3 gene expression vs DMSO control) (PIM-3 [2]; [16])	Fold change (PIM-3 gene expression vs DMSO control) (PIM-3 [2]; [17])	Fold change (PIM-3 gene expression vs DMSO control) (PIM-3 [2]; [18])	Fold change (PIM-3 gene expression vs DMSO control) (PIM-3 [2]; [19])	Fold change (PIM-3 gene expression vs DMSO control) (PIM-3 [2]; [20])	HbA1c (%) (ZDF rats)
CN(CCOc1ccc(CC2SC(=O)NC2=O)cc1)c1ccccn1 (centres unmarked) [Rosi, rosiglitazone]	1.6 (2×) and 1.3 and 1.5 and 1.4	2.1	1.5	2.0	2.9	2.2	1.9	2.6	2.0	2.1	2.2	1.3	2.2	2.9	1.9	1.3	2.6	1.9	2.0	4.30% and 4.27% and 4.14% (2×) and 4.13%
Cc1c(C)c2c(c(C)c1O)CCC(C)(COc1ccc(CC3SC(=O)NC3=O)cc1)O2 (centres unmarked) [Tro, troglitazone]	–	1.7	1.7	1.8	1.8	1.6	1.6	1.8	1.6	1.6	2.1	1.7	2.3	2.7	1.9	2.0	2.4	1.9	2.3	–
